From patent publication US4603044A, “Hepatocyte Directed Vesicle delivery system” (Technology Unlimited, Inc., priority 1984, dated 1986)

Key:
[1] = system: denervated dogs (diabetic-like state); assay: Blood glucose response to a standardized meal in selectively denervated (diabetic-like) dogs; type: in vivo, dog; conditions: serotonin 150 ug, intravenously or subcutaneously
Source text: In a first study testing the HDV system, a chronic dog model was selected which mimics the early stages of adult onset diabetes mellitus, now referred to as diabetes mellitus Type II. In this model, the diabetes was induced by selective denervation.
This study was divided into three phases, studying the blood glucose response of the animals while in the (1) normal state; (2) diabetic-like state; and (3) successful treatment of the diabetic-like state with subcutaneously administered HDV containing serotonin.
The experimental plan required four normal, healthy mongrel dogs. […] The graph of FIG. 1 is a comparison chart for in vivo testing.
The data for this normal phase are shown in the graph as the line indicated by reference number 10. The data are expressed as a percentage of the fasting blood glucose value taken prior to feeding. Since four dogs were used, the average or mean value for the data is plotted. The data are statistically analyzed, and the variation in the data is shown by the small vertical bars above and below the data points. These bars are the standard error of the mean (SEM).
Following the acquisition of the data described above, the dogs were surgically denervated to induce the diabetic-like state and allowed a week to recover. At this time the study is again repeated, and the data are shown as the line indicated by reference number 12, along with the error bars (SEM). […]

[2] = system: selectively denervated dog; assay: Conversion of hepatic glucose output to uptake in selectively denervated dog, intraduodenal injection; type: in vivo; conditions: infusion for thirty minutes
Experimental: In this model, the response of the HDV Serotonin was the conversion of hepatic glucose output to uptake. This conversion was determined by measuring the glucose levels (Beckman Glucose Analyzer) in simultaneously obtained blood samples from the portal and hepatic veins. Sampling was by means of sampling catheters acutely placed under general anesthesia.
The state of hepatic glucose output occur when the level of glucose (mg %) in the hepatic vein exceeds that of the portal vein. Hepatic glucose uptake is the reverse situation.
Data for the experiment are found in the graph of FIG. 5. At "0" minutes, during the control period, the animal is in a state of hepatic glucose output. Because of the selective denervation, the animal stays in output (at 20 and 55 minutes), even though glucose is being infused at a rate of 0.5 g/kg body weight/hour via a mesenteric vein.
The HDV Serotonin is injected into the duodenum (0.8 ml containing 3 ug serotonin/kg) at 60 minutes.

[3] = system: selectively denervated dog; assay: Conversion of hepatic glucose output to uptake in selectively denervated dog, intravenous infusion (biliverdin target); type: in vivo
Experimental: This dog, when infused with glucose, has portal vein glucose values (mg % measured with a Beckman Glucose Analyzer) that are less than hepatic vein glucose, indicating a hep hepatic glucose output. This is clearly seen in the data presented in the of FIG. 6. The dog is in a state of glucose output for time 15, 30 and 40 minutes. […]

[4] = system: insulin-deficient (diabetic) dog; assay: Conversion of hepatic glucose output to uptake in insulin-deficient (diabetic) dog, intravenous infusion; type: in vivo; conditions: insulin alone
Source text: The response of HDV Insulin to be measured was the conversion of hepatic glucose output to uptake by measuring the glucose (Beckman Glucose Analyzer) levels of simultaneously obtained portal and hepatic vein blood. Diabetes had been induced by the method of Black, (Am. J. Pathol. Vol 98, No. 2, pg 295-305, 1980) and sampling was done via portal and hepatic vein catheters acutely placed under general anesthesia. The dog had been fasted from food for twenty-four hours and taken off of exogenously-administered insulin for forty-eight hours.
The state of hepatic glucose output occurs when the hepatic vein glucose level (in mg%) exceeds the portal vein glucose level. Hepatic glucose uptake is the reverse.
The data for the experiment are found in the graph of FIG. 4. At "0" minutes the dog is in glucose output, and this output is maintained through the "23" and "35" minute samples, even though glucose is infused via a mesenteric vein at a rate of 0.5 g/kg body weight/hour. An intact (non-diabetic) animal would have immediately converted to glucose uptake. This dog's diabetic state is confirmed by its' not converting to glucose uptake at these times.
Following the "35" minutes sampling, HDV Insulin was infused via the left external jugular vein at a rate of 0.03 mU/kg/minute. […] The minimum infusion rate for insulin alone is 6.25 mU/kg/minute. […]

hypophysectomized rats = assay: Growth stimulation in hypophysectomized rats, daily subcutaneous injection; type: in vivo, rat
Experimental: The HDVGH was administered to rats daily by subcutaneous injection. The control rats required 10 ugGH per day (also given subcutaneously) to maintain normal growth of 1 g weight gain per day. The HDVGH treated rats attained normal growth rates with dosages of HDVGH of 0.15 to 1.5 ug per day. Thus, the HDVGH required only 1/7th to 1/50th of the regular dose of growth hormone. The HDVGH was superpotent and was efficacious when given by subcutaneous injection.

## NCCc1c[nH]c2ccc(O)cc12 [serotonin, 5-hydroxytryptamine]
[1]
  effect of free serotonin on post-meal blood glucose elevation: not effective
[2]
  intraportal infusion of free serotonin required for the same pharmacologic effect: 10-30 ug/kg body weight/minute
[3]
  rate of free serotonin infusion required: 30 µg/kg/min

## insulin: free hormone insulin, comparator to HDV Insulin
[4]
  minimum infusion rate for conversion to hepatic glucose uptake: 6.25 mU/kg/minute

B1: GH: free growth hormone given subcutaneously to control rats (protein, UniProt P01244 27-216, looked up)
Somatotropin: FPAMPLSSLFANAVLRAQHLHQLAADTYKEFERAYIPEGQRYSIQNAQAAFCFSETIPAPTGKEEAQQRTDMELLRFSLLLIQSWLGPVQFLSRIFTNSLMFGTSDRVYEKLKDLEEGIQALMQELEDGSPRIGQILKQTYDKFDANMRSDDALLKNYGLLSCFKKDLHKAETYLRVMKCRRFAESSCAF
Hypophysectomized rats
  daily dose to attain/maintain normal growth (1 g weight gain per day): 10 ug per day
